IC50, efflux ratio and Papp A→B data for 16 molecules are collected here from US20240317712A1, “[…] DERIVATIVES AS INHIBITORS OF […]-PEPTIDE CYCLOTRANSFERASE AND […]-PEPTIDE CYCLOTRANSFERASE LIKE PROTEIN” (Boehringer Ingelheim International GmbH, priority 2023, published 2024).

As usually defined, the IC50 is the concentration needed to halve the response being measured. Broadly, the efflux ratio is a quotient of directional permeabilities that is used to spot active efflux. What is called Papp A→B is how fast a substance crosses the layer from the apical side. A lower Papp A→B goes with poor permeation.

In data set [1] the test system is SIRPα signalling induced by A549 cells. Kind of data set: Assay B: SIRPα signalling assay using A549 cells. It counts as cell-based. The note with it: Homo sapiens, 48 h compound incubation, Jurkat PathHunter SIRPaV1 reporter cells, read-out: Inhibition of SIRPα signalling induced by A549 cells: IC50. On the procedure:
(§1) Two cell types are independently used: the Raji cell line (lymphoblast-like human cell line derived from B lymphocytes from a Burkitt's lymphoma patient in 1963) and A549 cells (adenocarcinoma human alveolar basal epithelial cells).
(§2) Test compounds were dissolved in 100% DMSO and serially diluted into a white 384-well microtiter cell culture plate (PerkinElmer #60076780 in case of Raji assay; PDL-coated plates Greiner #781945 in case of A549 assay), 5000 Raji cells (ATCC #CC86) or 5000 A549 cells (ATCC #CCL-185) in Assay Complete Cell Plating reagent 30 (DiscoverX 93-0563R30B) were added per well. The assay plate was incubated for 48 h at 37° C., 95% humidity and 5% CO2. 15000 reporter cells (Jurkat PathHunter SIRPaV1, DiscoverX #93-1135C19) were added to each well, and the plate was incubated for 5 h at 37° C., 95% humidity and 5% CO2. Bioassay reagent 1 of the PathHunter Bioassay detection kit (DiscoverX 93-0001) was added to each well of the plate using a multichannel pipette followed by a 15 min incubation at room temperature. Afterwards bioassay reagent 2 was added followed by 60 min incubation at room temperature (incubation in the dark). The analysis of the data was performed using the luminescence signal generated by beta-galactosidase in the PathHunter reporter cell line. The luminescence measurement was done using a Pherastar Multi-Mode Reader. Dose-response curves & IC50 data were calculated with 4-parameter sigmoidal dose response formula.

Data set [2] is described as follows: Assay C: Permeability in CACO-2 cells. It counts as in vitro ADME. The note with it: human, pH 7.2; for efflux ratio: Caco-2, permeability B−A/permeability A−B; for Papp A→B: Caco-2, apical to basolateral. On the procedure:
Caco-2 cells (1-2×10^5 cells/1 cm^2 area) are seeded on filter inserts (Costar transwell polycarbonate or PET filters, 0.4 μm pore size) and cultured (DMEM) for 10 to 25 days. Compounds are dissolved in appropriate solvent (like DMSO, 1-20 mM stock solutions). […] The transport solution (TL) is applied to the apical or basolateral donor side for measuring A-B or B-A permeability (3 filter replicates), respectively. Samples are collected at the start and end of experiment from the donor and at various time intervals for up to 2 hours also from the receiver side for concentration measurement by HPLC-MS/MS or scintillation counting. Sampled receiver volumes are replaced with fresh receiver solution.
Efflux ratio (ER)=permeability B−A/permeability A−B
(In general: Passage across Caco-2 layers is used to estimate intestinal permeability.)

The subject of data set [3] is SIRPα signalling induced by Raji cells. Kind of data set: Assay B: SIRPα signalling assay using Raji cells. It counts as cell-based. The conditions noted are these: Homo sapiens, 48 h compound incubation, Jurkat PathHunter SIRPaV1 reporter cells, read-out: Inhibition of SIRPα signalling induced by Raji cells: IC50. As for the experimental part: as §1, §2
A further data set has as its target T1, QPCTL (Homo sapiens, UniProt Q9NXS2).
T1 construct: made in house
Kind of data set: Assay A: biochemical QPCTL activity assay (MALDI-TOF MS, CD47 peptide substrate). The conditions noted are these: 0.5 nM enzyme, 10 μM CD47 peptide substrate; read-out: Inhibition of QPCTL: IC50. As for the experimental part:
(§3) QPCT or QPCTL dependent conversion of N-terminal glutamine to pyroglutamate of CD47 was monitored via MALDI-TOF MS. Test compounds were dissolved in 100% DMSO and serially diluted into clear 1,536-well microtiter plates. Enzymatic reactions were set up in assay buffer containing 20 mM Tris pH 7.5, 0.1 mM TCEP, 0.01% BSA, and 0.001% Tween20. […] The plates were incubated for 10 min in a humidified incubator at 24° C. Subsequently, 2.5 µL of CD47 peptide substrate surrogate (^19[…]^33) was added to each well (final concentration: 10 μM for QPCTL/20 μM for QPCT). The plates were mixed for 30 sec at 1,000 rpm and subsequently incubated for 40 min in a humidified incubator at 24° C. […] The plates were sealed with an adhesive foil, mixed for 30 s at 1,000 rpm and stored at room temperature until preparation of the MALDI target plates. MALDI target plates were prepared as described previously. […] QPCT or QPCTL activity was monitored by calculating the ratio between product and internal standard signals followed by normalization to high (100% activity) and low (0% activity) controls. Determination of compound potencies was obtained by fitting the dose-response data to a four-parameter logistical equation.

Another data set has as its target T2, QPCT (Homo sapiens, UniProt Q16769).
T2 construct: purchased Origine (so in the source)
The data set is described as follows: Assay A: biochemical QPCT activity assay (MALDI-TOF MS, CD47 peptide substrate). The note with it: 0.5 nM enzyme, 20 μM CD47 peptide substrate; read-out: Inhibition of QPCT: IC50. On the procedure: as §3

T1 sequence (Q9NXS2 whole entry): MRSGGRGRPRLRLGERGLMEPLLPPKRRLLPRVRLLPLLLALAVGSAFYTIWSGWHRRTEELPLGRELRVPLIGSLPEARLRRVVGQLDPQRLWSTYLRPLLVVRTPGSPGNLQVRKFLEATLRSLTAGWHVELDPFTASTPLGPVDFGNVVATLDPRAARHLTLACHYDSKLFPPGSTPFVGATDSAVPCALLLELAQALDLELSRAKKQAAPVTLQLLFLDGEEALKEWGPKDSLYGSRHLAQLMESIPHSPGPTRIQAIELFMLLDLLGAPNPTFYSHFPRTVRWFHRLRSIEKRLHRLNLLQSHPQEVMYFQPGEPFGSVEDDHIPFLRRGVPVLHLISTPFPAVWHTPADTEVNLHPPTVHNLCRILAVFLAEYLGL
T2 sequence (Q16769 29-361): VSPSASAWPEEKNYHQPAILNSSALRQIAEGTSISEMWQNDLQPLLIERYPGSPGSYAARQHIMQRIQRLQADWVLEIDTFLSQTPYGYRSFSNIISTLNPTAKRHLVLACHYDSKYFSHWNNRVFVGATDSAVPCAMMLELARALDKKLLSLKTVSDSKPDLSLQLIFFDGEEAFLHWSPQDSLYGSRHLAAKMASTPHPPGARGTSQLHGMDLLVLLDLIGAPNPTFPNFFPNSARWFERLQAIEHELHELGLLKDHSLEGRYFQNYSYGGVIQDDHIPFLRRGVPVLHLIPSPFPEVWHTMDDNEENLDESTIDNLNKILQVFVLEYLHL

Regarding `COc1ccc(-c2ccc(F)nc2)c(N2CCC(c3nncn3C)CC2)c1C#N` [Example 20], the IC50 amounted to 24 nM in data set [1], 102 nM in data set [3], 1 nM at QPCTL and 4 nM on QPCT. Moreover, the efflux ratio in data set [2] was 12.5. The molecule further gave an apparent permeability from apical to basolateral (Papp A→B) in data set [2] of 56 nm/s.
In the case of `Cn1cnnc1C1CCN(c2c(C#N)cc(C#N)cc2-c2ccc(F)nc2)CC1` [Example 21], the IC50 in data set [1] amounted to 280 nM; in data set [3] it was 324 nM; on QPCTL, 5 nM; on QPCT, 25 nM. Also, the efflux ratio in data set [2] turned out to be 39.1. In addition, in data set [2], the Papp A→B was 11 nm/s.
`Cn1cnnc1C1(F)CCN(c2c(C#N)cc(C(F)(F)F)cc2-c2cnc3nc(C(F)(F)F)cn3c2)CC1` [Example 22]: the half-inhibitory concentration (IC50) in data set [1] came to 39 nM; in data set [3], 17 nM; on QPCTL, 1 nM; at QPCT it was 1 nM. The efflux ratio in data set [2] is 10.5. Besides, the Papp A→B in data set [2] is 21 nm/s.
For the molecule `COc1cc(-c2cc(C(F)(F)F)cc(C#N)c2N2CCC(F)(c3nncn3C)CC2)cnn1` [Example 23], the concentration for half-maximal inhibition (IC50) in data set [1] was determined as 145 nM; in data set [3] it was 278 nM; on QPCTL, 21 nM; at QPCT, 14 nM. The efflux ratio in data set [2] was found to be 4.3. In data set [2], this molecule had an apical-to-basolateral permeability (Papp A→B) of 130 nm/s.
For the molecule `Cn1cnnc1C1(F)CCN(c2c(C#N)cc(F)cc2-c2cnc3nn(C(C)(C)C)c(Cl)c3c2)CC1` [Example 24], the half-maximal inhibitory concentration (IC50) amounted to 13 nM in data set [1], 16 nM in data set [3], 2 nM at QPCTL and 1 nM on QPCT. For the same molecule, the efflux ratio in data set [2] stood at 1.7. In data set [2], this molecule showed an apparent permeability from apical to basolateral (Papp A→B) of 460 nm/s.
As for `Cn1cnnc1C1(F)CCN(c2c(C#N)cc(F)cc2-c2cnc3nn(C(C)(C)C)cc3c2)CC1` [Example 25], the half-maximal inhibitory concentration (IC50) was determined as 10 nM in data set [1], 23 nM in data set [3], 2 nM at QPCTL and 1 nM on QPCT. Besides, the efflux ratio in data set [2] came to 9.7. In data set [2], this molecule came in with a Papp A→B of 75 nm/s.
Turning to `Cn1cnnc1C1CCN(c2c(C#N)cc(F)cc2-c2cnc3nn(C(C)(C)C)c(Cl)c3c2)CC1` [Example 26], the IC50 in data set [1] amounted to 8 nM; in data set [3], 16 nM; at QPCTL it was 1 nM; at QPCT it was 1 nM. Moreover, the efflux ratio in data set [2] is 3.9. In addition, the Papp A→B in data set [2] came to 140 nm/s.
For `Cn1cnnc1C1(F)CCN(c2c(-c3cnc4nn(C(C)(C)C)cc4c3)ccc(Cl)c2C#N)CC1` [Example 27], the IC50 in data set [1] was 7 nM; in data set [3], 19 nM; at QPCTL it was 1 nM; at QPCT it was 1 nM. Besides, in data set [2], the efflux ratio is 19.1. Also, the apical-to-basolateral permeability (Papp A→B) in data set [2] was determined as 22 nm/s.
Consider `Cn1cnnc1C1(F)CCN(c2c(-c3ccc(F)nc3)ccc(Cl)c2C#N)CC1` [Example 28], for which the 50% inhibitory concentration (IC50) was determined as 12 nM in data set [1], 93 nM in data set [3], 2 nM on QPCTL and 2 nM at QPCT. In data set [2], the efflux ratio is 1.7. This molecule gave a Papp A→B in data set [2] of 340 nm/s.
Turning to `Cn1cnnc1C1(F)CCN(c2c(-c3ccc(F)nc3)ccc(C(F)(F)F)c2C#N)CC1` [Example 29], the IC50 in data set [1] was determined as 19 nM; in data set [3], 78 nM; at QPCTL, 1 nM; at QPCT it was 2 nM. For the same molecule, the efflux ratio in data set [2] was determined as 1.4. In data set [2], this molecule showed a Papp A→B of 530 nm/s.
As to `Cn1cnnc1C1(F)CCN(c2c(-c3cnc4nn(C(C)(C)C)cc4c3)ccc(C(F)(F)F)c2C#N)CC1` [Example 30], the IC50 was found to be 8 nM in data set [1], 19 nM in data set [3], 1 nM on QPCTL and 1 nM on QPCT. In data set [2], the efflux ratio was 22.9. Besides, in data set [2], the Papp A→B was 17 nm/s.
In the case of `Cn1cnnc1C1CCN(c2c(-c3ccc(F)nc3)ccc(C(F)(F)F)c2C#N)CC1` [Example 31], the half-inhibitory concentration (IC50) in data set [1] came out at 19 nM; in data set [3] it was 77 nM; at QPCTL it was 1 nM; on QPCT, 4 nM. For the same molecule, in data set [2], the efflux ratio was 3.5. For the same molecule, the apparent permeability from apical to basolateral (Papp A→B) in data set [2] is 220 nm/s.
Consider `Cn1cnnc1C1CCN(c2c(-c3cnc4nn(C(C)(C)C)cc4c3)ccc(C(F)(F)F)c2C#N)CC1` [Example 32], for which the half-maximal inhibitory concentration (IC50) is 36 nM in data set [1], 70 nM in data set [3], 2 nM at QPCTL and 2 nM at QPCT. Further, the efflux ratio in data set [2] stood at 146. In data set [2], this molecule came in with a Papp A→B of 2 nm/s.
On to `COc1ccc(-c2cnc3nn(C(C)(C)C)cc3c2)c(N2CCC(F)(c3nncn3C)CC2)c1C#N` [Example 33], for which the IC50 in data set [1] stood at 11 nM; in data set [3] it was 20 nM; at QPCTL it was 1 nM; on QPCT, 1 nM. In addition, the efflux ratio in data set [2] turned out to be 51.9. This molecule registered a Papp A→B in data set [2] of 8 nm/s.
Take `Cn1cnnc1C1(F)CCN(c2c(C#N)cc(C(F)(F)F)cc2-c2cnc3nc(C4(C)CC4)nn3c2)CC1` [Example 35]: the concentration for half-maximal inhibition (IC50) in data set [1] was determined as 6 nM; in data set [3], 16 nM; at QPCTL, 1 nM; at QPCT, 2 nM. The efflux ratio in data set [2] is 17.1. In addition, the Papp A→B in data set [2] is 48 nm/s.
Take `Cn1cnnc1C1(F)CCN(c2c(C#N)cc(C(F)(F)F)cc2-c2cnc3nn(C(F)(F)F)cc3c2)CC1` [Example 36]: the IC50 in data set [1] is 9 nM; in data set [3] it was 8 nM; at QPCTL, 1 nM; on QPCT it was 1 nM. Also, in data set [2], the efflux ratio came out at 6.7. In data set [2], this molecule yielded a Papp A→B of 57 nm/s.
